In general, MIC refers to the lowest concentration found to suppress growth. As usually defined, the IC50 is the point on the concentration scale where inhibition reaches its midpoint.

≈ marks a conversion by molar mass, not a printed value. Calls of active or inactive are those of the source. The rule behind the calls is not given here. Where a SMILES comes first, the peptide text is derived from it. The star is where a group is joined. Palmitoyl = CCCCCCCCCCCCCCCC(=O)*; Myristoyl = CCCCCCCCCCCCCC(=O)*; Lauroyl = CCCCCCCCCCCC(=O)*; Decanoyl = CCCCCCCCCC(=O)*

Results on 9 molecules are retold here after ChEMBL document CHEMBL4406885, “Effect of self-assembly on antimicrobial activity of double-chain short cationic lipopeptides” (Bioorg Med Chem, 2019).

The subject of the first test is Lipid bilayer. In words: Binding affinity to POPG large unilamellar vesicle at 298 kelvin by ITC method.
Conditions: not given
On the technique in general: ITC needs no label: the signal is the heat of the interaction.
On to `CCCCCCCCCC(=O)NCC(NC(=O)CCCCCCCCC)C(=O)O` (centres undefined), for which the pK fell in the range of 6.83 to 50.7.
`CCCCCCCCCCCC(=O)NCC(NC(=O)CCCCCCCCCCC)C(=O)O` (centres undefined) displayed a pK of 6.34.
In turn, `CCCCCCCCCCCC(=O)NCCC(NC(=O)CCCCCCCCCCC)C(=O)O` (centres undefined) displayed a pK of 4.1.

For a further test, the system named is Lipid bilayer. In words: Binding affinity to POPC large unilamellar vesicle at 0.2 mM by ITC method.
Conditions: not given
Regarding `CCCCCCCCCC(=O)NCC(NC(=O)CCCCCCCCC)C(=O)O` (centres undefined), the outcome was inactive.
As for `CCCCCCCCCC(=O)NCCC(NC(=O)CCCCCCCCC)C(=O)O` (centres undefined), the result was inactive.
In the case of `CCCCCCCCCCCC(=O)NCC(NC(=O)CCCCCCCCCCC)C(=O)O` (centres undefined), the result was inactive.
The same measure, in the same setting: the same measure for `CCCCCCCCCCCC(=O)NCCC(NC(=O)CCCCCCCCCCC)C(=O)O` (centres undefined): “inactive”; for `CCCCCCCCCCCCCCCC(=O)NCC(NC(=O)CCCCCCCCCCCCCCC)C(=O)O` (centres undefined): “inactive”.
For `CCCCCCCCCC(=O)NCCCC[C@H](NC(=O)CCCCCCCCC)C(=O)N[C@@H](CCCCN)C(=O)N[C@@H](CCCCN)C(=O)N[C@@H](CCCCN)C(N)=O` (Decanoyl-K(Decanoyl)KKK-NH2), the outcome was inactive.
Still for that read-out and setting: the same measure for `CCCCCCCCCCCC(=O)NCCCC[C@H](NC(=O)CCCCCCCCCCC)C(=O)N[C@@H](CCCCN)C(=O)N[C@@H](CCCCN)C(=O)N[C@@H](CCCCN)C(N)=O` (Lauroyl-K(Lauroyl)KKK-NH2): “inactive”; for `CCCCCCCCCCCCCC(=O)NCCCC[C@H](NC(=O)CCCCCCCCCCCCC)C(=O)N[C@@H](CCCCN)C(=O)N[C@@H](CCCCN)C(=O)N[C@@H](CCCCN)C(N)=O` (Myristoyl-K(Myristoyl)KKK-NH2): “inactive”; for `CCCCCCCCCCCCCCCC(=O)NCCCC[C@H](NC(=O)CCCCCCCCCCCCCCC)C(=O)N[C@@H](CCCCN)C(=O)N[C@@H](CCCCN)C(=O)N[C@@H](CCCCN)C(N)=O` (Palmitoyl-K(Palmitoyl)KKK-NH2): “inactive”.

A further test deals with Staphylococcus epidermidis. In words: Antibacterial activity against Staphylococcus epidermidis PCM 2118 assessed as growth inhibition measured after 18 hrs by CLSI based method. The class given is functional. As to conditions: PCM 2118, 18 h.
Take `CCCCCCCCCC(=O)NCCCC[C@H](NC(=O)CCCCCCCCC)C(=O)N[C@@H](CCCCN)C(=O)N[C@@H](CCCCN)C(=O)N[C@@H](CCCCN)C(N)=O` (Decanoyl-K(Decanoyl)KKK-NH2): the MIC came out at 2 µg/mL (≈ 2.39 µM).
In the case of `CCCCCCCCCCCC(=O)NCCCC[C@H](NC(=O)CCCCCCCCCCC)C(=O)N[C@@H](CCCCN)C(=O)N[C@@H](CCCCN)C(=O)N[C@@H](CCCCN)C(N)=O` (Lauroyl-K(Lauroyl)KKK-NH2), the MIC is 16 µg/mL (≈ 17.9 µM).
The same measure, in the same setting: the same measure for `CCCCCCCCCCCCCC(=O)NCCCC[C@H](NC(=O)CCCCCCCCCCCCC)C(=O)N[C@@H](CCCCN)C(=O)N[C@@H](CCCCN)C(=O)N[C@@H](CCCCN)C(N)=O` (Myristoyl-K(Myristoyl)KKK-NH2): 256 µg/mL (≈ 269 µM); for `CCCCCCCCCCCCCCCC(=O)NCCCC[C@H](NC(=O)CCCCCCCCCCCCCCC)C(=O)N[C@@H](CCCCN)C(=O)N[C@@H](CCCCN)C(=O)N[C@@H](CCCCN)C(N)=O` (Palmitoyl-K(Palmitoyl)KKK-NH2): above 512 µg/mL.

A further test has as its system Pseudomonas aeruginosa. In words: Antibacterial activity against Pseudomonas aeruginosa ATCC 9027 assessed as growth inhibition measured after 18 hrs by CLSI based method. The class given is functional. As to conditions: ATCC 9027, 18 h.
Consider `CCCCCCCCCC(=O)NCCCC[C@H](NC(=O)CCCCCCCCC)C(=O)N[C@@H](CCCCN)C(=O)N[C@@H](CCCCN)C(=O)N[C@@H](CCCCN)C(N)=O` (Decanoyl-K(Decanoyl)KKK-NH2), for which the MIC is 8 µg/mL (≈ 9.54 µM).
Same read-out and setting: the figure for `CCCCCCCCCCCC(=O)NCCCC[C@H](NC(=O)CCCCCCCCCCC)C(=O)N[C@@H](CCCCN)C(=O)N[C@@H](CCCCN)C(=O)N[C@@H](CCCCN)C(N)=O` (Lauroyl-K(Lauroyl)KKK-NH2) is 256 µg/mL (≈ 286 µM); for `CCCCCCCCCCCCCC(=O)NCCCC[C@H](NC(=O)CCCCCCCCCCCCC)C(=O)N[C@@H](CCCCN)C(=O)N[C@@H](CCCCN)C(=O)N[C@@H](CCCCN)C(N)=O` (Myristoyl-K(Myristoyl)KKK-NH2) it is 512 µg/mL (≈ 539 µM).
With `CCCCCCCCCCCCCCCC(=O)NCCCC[C@H](NC(=O)CCCCCCCCCCCCCCC)C(=O)N[C@@H](CCCCN)C(=O)N[C@@H](CCCCN)C(=O)N[C@@H](CCCCN)C(N)=O` (Palmitoyl-K(Palmitoyl)KKK-NH2), the minimal inhibitory concentration (MIC) is above 512 µg/mL.

In the next test the test system is Lipid bilayer. In words: Binding affinity to DPPG large unilamellar vesicles at 323 kelvin by ITC method.
Conditions: not given
With `CCCCCCCCCC(=O)NCC(NC(=O)CCCCCCCCC)C(=O)O` (centres undefined), the pK was 4.5.
The molecule `CCCCCCCCCC(=O)NCCC(NC(=O)CCCCCCCCC)C(=O)O` (centres undefined) had a pK of 5.06.
Molecule `CCCCCCCCCCCC(=O)NCC(NC(=O)CCCCCCCCCCC)C(=O)O` (centres undefined) had a pK of 5.37.
On the same count and under the same terms, the same measure for `CCCCCCCCCCCC(=O)NCCC(NC(=O)CCCCCCCCCCC)C(=O)O` (centres undefined): 4.52; for `CCCCCCCCCCCCCCCC(=O)NCC(NC(=O)CCCCCCCCCCCCCCC)C(=O)O` (centres undefined): “inactive”.

In a further test the test system is Lipid bilayer. In words: Binding affinity to DPPG large unilamellar vesicles at 298 kelvin by ITC method.
Conditions: not given
On to `CCCCCCCCCC(=O)NCC(NC(=O)CCCCCCCCC)C(=O)O` (centres undefined), for which the pK was 6.59 to 7.4.
In the case of `CCCCCCCCCC(=O)NCCC(NC(=O)CCCCCCCCC)C(=O)O` (centres undefined), the pK was in the range of 5.76 to 7.37.
The molecule `CCCCCCCCCCCC(=O)NCC(NC(=O)CCCCCCCCCCC)C(=O)O` (centres undefined) yielded a pK of 7.18.
Same read-out and setting: the same measure for `CCCCCCCCCCCC(=O)NCCC(NC(=O)CCCCCCCCCCC)C(=O)O` (centres undefined): 5.14 to 7.38.
Same read-out and setting: the same measure for `CCCCCCCCCCCCCCCC(=O)NCC(NC(=O)CCCCCCCCCCCCCCC)C(=O)O` (centres undefined): 4.26 to 6.99.

In another test the test system is Candida albicans. In words: Antifungal activity against Candida albicans ATCC 10231 assessed as growth inhibition measured after 48 hrs by CLSI based method. The class given is functional. Particulars: ATCC 10231, 48 h.
Turning to `CCCCCCCCCC(=O)NCCCC[C@H](NC(=O)CCCCCCCCC)C(=O)N[C@@H](CCCCN)C(=O)N[C@@H](CCCCN)C(=O)N[C@@H](CCCCN)C(N)=O` (Decanoyl-K(Decanoyl)KKK-NH2), the minimum inhibitory concentration (MIC) is 8 µg/mL (≈ 9.54 µM).
Regarding `CCCCCCCCCCCC(=O)NCCCC[C@H](NC(=O)CCCCCCCCCCC)C(=O)N[C@@H](CCCCN)C(=O)N[C@@H](CCCCN)C(=O)N[C@@H](CCCCN)C(N)=O` (Lauroyl-K(Lauroyl)KKK-NH2), the MIC worked out at 8 µg/mL (≈ 8.95 µM).
As to `CCCCCCCCCCCCCC(=O)NCCCC[C@H](NC(=O)CCCCCCCCCCCCC)C(=O)N[C@@H](CCCCN)C(=O)N[C@@H](CCCCN)C(=O)N[C@@H](CCCCN)C(N)=O` (Myristoyl-K(Myristoyl)KKK-NH2), the MIC is 512 µg/mL (≈ 539 µM).
The same measure, in the same setting: the figure for `CCCCCCCCCCCCCCCC(=O)NCCCC[C@H](NC(=O)CCCCCCCCCCCCCCC)C(=O)N[C@@H](CCCCN)C(=O)N[C@@H](CCCCN)C(=O)N[C@@H](CCCCN)C(N)=O` (Palmitoyl-K(Palmitoyl)KKK-NH2) is above 512 µg/mL.

The next test has as its system Staphylococcus aureus. In words: Antibacterial activity against Staphylococcus aureus ATCC 25923 assessed as growth inhibition measured after 18 hrs by CLSI based method. The class given is functional. As to conditions: ATCC 25923, 18 h.
As to `CCCCCCCCCC(=O)NCCCC[C@H](NC(=O)CCCCCCCCC)C(=O)N[C@@H](CCCCN)C(=O)N[C@@H](CCCCN)C(=O)N[C@@H](CCCCN)C(N)=O` (Decanoyl-K(Decanoyl)KKK-NH2), the MIC was 64 µg/mL (≈ 76.4 µM).
Consider `CCCCCCCCCCCC(=O)NCCCC[C@H](NC(=O)CCCCCCCCCCC)C(=O)N[C@@H](CCCCN)C(=O)N[C@@H](CCCCN)C(=O)N[C@@H](CCCCN)C(N)=O` (Lauroyl-K(Lauroyl)KKK-NH2), for which the minimum inhibitory concentration (MIC) came out at 64 µg/mL (≈ 71.6 µM).
Consider `CCCCCCCCCCCCCC(=O)NCCCC[C@H](NC(=O)CCCCCCCCCCCCC)C(=O)N[C@@H](CCCCN)C(=O)N[C@@H](CCCCN)C(=O)N[C@@H](CCCCN)C(N)=O` (Myristoyl-K(Myristoyl)KKK-NH2), for which the MIC is above 512 µg/mL.
Take `CCCCCCCCCCCCCCCC(=O)NCCCC[C@H](NC(=O)CCCCCCCCCCCCCCC)C(=O)N[C@@H](CCCCN)C(=O)N[C@@H](CCCCN)C(=O)N[C@@H](CCCCN)C(N)=O` (Palmitoyl-K(Palmitoyl)KKK-NH2): the minimum inhibitory concentration (MIC) was above 512 µg/mL.

Another test deals with Escherichia coli. In words: Antibacterial activity against Escherichia coli ATCC 25922 assessed as growth inhibition measured after 18 hrs by CLSI based method. The class given is functional. Particulars: ATCC 25922, 18 h.
Turning to `CCCCCCCCCC(=O)NCCCC[C@H](NC(=O)CCCCCCCCC)C(=O)N[C@@H](CCCCN)C(=O)N[C@@H](CCCCN)C(=O)N[C@@H](CCCCN)C(N)=O` (Decanoyl-K(Decanoyl)KKK-NH2), the MIC amounted to 16 µg/mL (≈ 19.1 µM).
Regarding `CCCCCCCCCCCC(=O)NCCCC[C@H](NC(=O)CCCCCCCCCCC)C(=O)N[C@@H](CCCCN)C(=O)N[C@@H](CCCCN)C(=O)N[C@@H](CCCCN)C(N)=O` (Lauroyl-K(Lauroyl)KKK-NH2), the MIC was 128 µg/mL (≈ 143 µM).
`CCCCCCCCCCCCCC(=O)NCCCC[C@H](NC(=O)CCCCCCCCCCCCC)C(=O)N[C@@H](CCCCN)C(=O)N[C@@H](CCCCN)C(=O)N[C@@H](CCCCN)C(N)=O` (Myristoyl-K(Myristoyl)KKK-NH2): the MIC was above 512 µg/mL.
In the case of `CCCCCCCCCCCCCCCC(=O)NCCCC[C@H](NC(=O)CCCCCCCCCCCCCCC)C(=O)N[C@@H](CCCCN)C(=O)N[C@@H](CCCCN)C(=O)N[C@@H](CCCCN)C(N)=O` (Palmitoyl-K(Palmitoyl)KKK-NH2), the minimal inhibitory concentration (MIC) was above 512 µg/mL.

The test system of a further test is HaCaT. In words: Cytotoxicity against human HaCaT cells assessed as growth inhibition measured after 24 hrs by MTT assay.
Conditions: not given
The class given is cell-based. A general note: Tetrazolium dyes change colour on reduction, which living cells bring about.
For `CCCCCCCCCC(=O)NCCCC[C@H](NC(=O)CCCCCCCCC)C(=O)N[C@@H](CCCCN)C(=O)N[C@@H](CCCCN)C(=O)N[C@@H](CCCCN)C(N)=O` (Decanoyl-K(Decanoyl)KKK-NH2), the IC50 came out at 18.8 µg/mL (≈ 22.4 µM).
On the same count and under the same terms, the same measure for `CCCCCCCCCCCC(=O)NCCCC[C@H](NC(=O)CCCCCCCCCCC)C(=O)N[C@@H](CCCCN)C(=O)N[C@@H](CCCCN)C(=O)N[C@@H](CCCCN)C(N)=O` (Lauroyl-K(Lauroyl)KKK-NH2): 31.1 µg/mL (≈ 34.8 µM).
